Results published in patent US8394786B2, “Quinazoline derivatives” (Janssen Pharmaceutica N.V., priority 2003, dated 2013).

Columns and labels:
[1] = system: SKOV3 cells; test: Serum starved proliferation assay on the ovarian carcinoma SKOV3 cells (C3); assay type: cell-based; settings: EGF stimulated (100 ng/ml, 72 hours, serum free) or 72 hours with compounds, MTT cell viability assay; for IC50: Homo sapiens, SK-OV-3, 72 h, read-out: SKOV3 cell (C3): pIC50 (converted)
Procedure: The ovarian carcinoma cell line (SKOV3) was used in an epidermal growth factor stimulated cell proliferation assay, to assess the inhibitory effect of the compounds on EGF in whole cells.
In a first step the SKOV3 cells were incubated for 24 hours in the presence of 10% FCS serum. In the second step the cells were incubated with the compounds to be tested in a serum free condition (37° C. and 5% (v/v) CO2) and subsequently stimulated for 72 hours with EGF at a final concentration of 100 ng/ml. The effect of the compounds on the EGF stimulation was finally assessed in a standard MTT cell viability assay.
Alternatively, the SKOV3 cells were incubated for 24 hours in the presence of 10% FCS serum. In the second step the cells were incubated for 72 hours with the compounds to be tested and the effect of the compounds on cell proliferation was finally assessed in a standard MTT cell viability assay.

[2] = target: EGFR (Homo sapiens, UniProt P00533); test: In vitro inhibition of EGFR, Flash Plate or glass-fiber filter technology (C2); assay type: biochemical; parameters: 0.5 μg EGFR-kinase domain/well; settings: EGFR-kinase domain, 5.0 μM unlabeled ATP; for IC50: read-out: Kinase activity.(C2): pIC50 (converted)
Procedure: The in vitro inhibition of EGFR was assessed using either the Flash Plate technology or the glass-fiber filter technology as described by Davies, S. P. et al., Biochem J. (2000), 351; p. 95-105. The Flash Plate technology is generally described by B. A. Brown et al. in High Throughput Screening (1997), p. 317-328. Editor(s): Devlin, John P. Publisher: Dekker, New York, N.Y.
In the Flash Plate EGFR kinase reaction assay, a kinase substrate consisting of biotinylated poly(L-glutamic acid-L-tyrosine) (poly(GT)biotin), is incubated with the aforementioned protein in the presence of (^33P) radiolabeled ATP. (^33P) phosphorylation of the substrate is subsequently measured as light energy emitted using a streptavidin-coated Flash Plate (PerkinElmer Life Sciences) by trapping and quantifying the binding of the biotin tagged and radiolabeled substrate.
The EGFR kinase reaction is performed at 30° C. for 60 minutes in a 96-well microtiter FlashPlate (PerkinElmer Life Sciences). For each of the tested compounds a full dose response 1·10^−6M to 1·10^−10M has been performed. IRESSA° and Tarceva™ (erlotinib) were used as reference compounds. The 100 μl reaction volume contains 54.5 mM TrisHCl pH 8.0, 10 mM MgCl2, 100 μM Na3VO4, 5.0 μM unlabeled ATP, 1 mM DTT, 0.009% BSA, 0.8 μCi AT^33P, 0.35 μg/well poly(GT)biotin and 0.5 μg EGFR-kinase domain/well.
The reaction is stopped by aspirating the reaction mixture and washing the plate 3× with 200 μl wash/stop buffer (PBS+100 mM EDTA). After the final wash step 200 μl of wash/stop buffer was added to each well and the amount of phosphorylated (^33P) Poly(GT)biotin determined by counting (30 sec/well) in a microtiterplate scintillation counter.
In the glass-fiber filter technology EGFR kinase reaction assay, a kinase substrate consisting of poly(L-glutamic acid-L-tyrosine) (poly(GT)), is incubated with the aforementioned protein in the presence of (^33P) radiolabeled ATP. (^33P) Phosporylation of the substrate is subsequently measured as radioactivity bound on a glassfiber-filter.
The EGFR kinase reaction is performed at 25° C. for 10 minutes in a 96-well microtiterplate. For each of the tested compounds a full dose response 1·10^−6M to 1·10^−10M has been performed. IRESSA° and Tarceva™ (erlotinib) were used as reference compounds. The 25 μl reaction volume contains 60 mM TrisHCl pH 7.5, 3 mM MgCl2, 3 mM Mn Cl2, 3 μM Na3VO4, 50 μg/ml PEG20000, 5.0 μM unlabeled ATP, 1 mM DTT, 0.1 μCi AT^33P, 62.5 ng/well poly(GT) and 0.5 μg EGFR-kinase domain/well.
The reaction is stopped by adding 5 μl of a 3% phosphoric acid solution. 10 μl of the reaction mixture is then spotted onto a Filtermat A filter (Wallac) and washed 3 times for 5 min. in 75 mM phosphoric acid and 1 time for 5 min. in methanol prior to drying and quantification on the Typhoon (Amersham) using a LE phosphorage storage screen.

Molecule	SKOV3 cell (C3): pIC50 [1]	Kinase activity.(C2): pIC50 [2]	IC50 [1]	IC50 [2]
4,6-ethanediylidene-8H-pyrimido[4,5-b][6,1,12,15]benzoxatriazacyclooctadecine-12,15(16H)-dione, 20-chloro-9,10,11,13,14,17,22-heptahydro-23-methoxy-14-methyl- [Compound 139]	6.8	6.4	–	–
4,6-ethanediylidene-12H-pyrimido[4,5-b]pyrrolo[2,1-1][6,1,10,13]benzoxatriazacyclohexadecin-12-one, 20-chloro-19-fluoro-8,9,10,11,12a,13,14,15,17,22-decahydro-23-methoxy- [Compound 103]	7.3	7.2	–	–
4,6-ethenopyrimido[4,5-b][6,1,9,14]benzoxatriazacycloheptadecine-9,14(8H,15H)-dione, 19-chloro-10,11,12,13,16,21-hexahydro-22-methoxy- [Compound 150]	5.1	7.7	–	–
COc1cc2ncnc3c2cc1OCCCCNCCc1ccc(Cl)cc1N3 [Compound 32, 4,6-ethanediylidenepyrimido[4,5-b][6,1,11]benzoxadiazacyclopentadecine, 17-chloro-8,9,10,11,12,13,14,19-octahydro-20-methoxy-]	–	–	288 nM	3.98 nM
COc1cc2ncnc3c2cc1OCCNCC(=O)NCCCc1ccc(Cl)cc1N3 [Compound 42, 4,6-ethanediylidenepyrimido[4,5-b][6,1,9,12]benzoxatriazacycloheptadecin-12(13H)-one, 19-chloro-8,9,10,11,14,15,16,21-octahydro-22-methoxy-]	–	–	63.1 nM	501 nM
COc1cc2ncnc3c2cc1OCCN(C(=O)CN(C)CCO)CC(=O)NCCCc1ccc(Cl)cc1N3 [Compound 43, 4,6-ethanediylidenepyrimido[4,5-b][6,1,9,12]benzoxatriazacycloheptadecin-12(13H)-one, 19-chloro-8,9,10,11,14,15,16,21-octahydro-10-[[(2-hydroxyethyl)methylamino]acetyl]-22-methoxy-]	–	–	501 nM	79.4 nM
COc1cc2ncnc3c2cc1OCCN(C(=O)CNC(CO)CO)CC(=O)NCCCc1ccc(Cl)cc1N3 [Compound 44, 4,6-ethanediylidenepyrimido[4,5-b][6,1,9,12]benzoxatriazacycloheptadecin-12(13H)-one, 19-chloro-8,9,10,11,14,15,16,21-octahydro-10-[[[2-hydroxy-1-(hydroxymethyl)ethyl]amino]acetyl]-22-methoxy-]	–	–	7940 nM	631 nM
COc1cc2ncnc3c2cc1OCCN(C(=O)CN1CCOC(CO)C1)CC(=O)NCCCc1ccc(Cl)cc1N3 (stereo not drawn) [Compound 45, 4,6-ethanediylidenepyrimido[4,5-b][6,1,9,12]benzoxatriazacycloheptadecin-12(13H)-one, 19-chloro-8,9,10,11,14,15,16,21-octahydro-10-[[2-(hydroxymethyl)-4-morpholinyl]acetyl]-22-methoxy-]	–	–	10000 nM	158 nM
COc1cc2ncnc3c2cc1OCCN(C(=O)CNCCc1ccncc1)CC(=O)NCCCc1ccc(Cl)cc1N3 [Compound 46, 4,6-ethanediylidenepyrimido[4,5-b][6,1,9,12]benzoxatriazacycloheptadecin-12(13H)-one, 19-chloro-8,9,10,11,14,15,16,21-octahydro-22-methoxy-10-[[[2-(4-pyridinyl)ethyl]amino]acetyl]-]	–	–	7940 nM	200 nM
COc1cc2ncnc3c2cc1OCCN(C(=O)CN(C)CCN(C)C)CC(=O)NCCCc1ccc(Cl)cc1N3 [Compound 47, 4,6-ethanediylidenepyrimido[4,5-b][6,1,9,12]benzoxatriazacycloheptadecin-12(13H)-one, 19-chloro-10-[[[2-(dimethylamino)ethyl]methylamino]acetyl]-8,9,10,11,14,15,16,21-octahydro-22-methoxy-]	–	–	1580 nM	126 nM
COCCNCC(=O)N1CCOc2cc3c(ncnc3cc2OC)Nc2cc(Cl)ccc2CCCNC(=O)C1 [Compound 48, 4,6-ethanediylidenepyrimido[4,5-b][6,1,9,12]benzoxatriazacycloheptadecin-12(13H)-one, 19-chloro-8,9,10,11,14,15,16,21-octahydro-22-methoxy-10-[[(2-methoxyethyl)amino]acetyl]-]	–	–	1580 nM	316 nM
COCCCNCC(=O)N1CCOc2cc3c(ncnc3cc2OC)Nc2cc(Cl)ccc2CCCNC(=O)C1 [Compound 49, 4,6-ethanediylidenepyrimido[4,5-b][6,1,9,12]benzoxatriazacycloheptadecin-12(13H)-one, 19-chloro-8,9,10,11,14,15,16,21-octahydro-22-methoxy-10-[[(3-methoxypropyl)amino]acetyl]-]	–	–	794 nM	398 nM
COc1cc2ncnc3c2cc1OCCN(C(=O)CN1CCN(C)CC1)CC(=O)NCCCc1ccc(Cl)cc1N3 [Compound 51, 4,6-ethanediylidenepyrimido[4,5-b][6,1,9,12]benzoxatriazacycloheptadecin-12(13H)-one, 19-chloro-8,9,10,11,14,15,16,21-octahydro-22-methoxy-10-[(4-methyl-1-piperazinyl)acetyl]-]	–	–	398 nM	–
COc1cc2ncnc3c2cc1OCCCC=CCC(NC(=O)OC(C)(C)C)C(=O)NCc1ccc(Cl)cc1N3 (stereo not drawn) [Compound 110, carbamic acid, (20-chloro-9,10,13,14,15,16,17,22-octahydro-23-methoxy-15-oxo-4,6-ethanediylidene-8H-pyrimido[4,5-b][6,1,15]benzoxadiazacyclooctadecin-14-yl)-, 1,1-dimethylethyl ester]	–	–	–	3980 nM
CCC(C)C1NC(=O)COc2cc3c(ncnc3cc2OC)Nc2ccccc2CNC1=O (stereo not drawn) [Compound 124, 4,6-ethanediylidenepyrimido[4,5-b][6,1,9,12]benzoxatriazacyclopentadecine-9,12(8H,13H)-dione, 10,11,14,19-tetrahydro-20-methoxy-11-(1-methylpropyl)-]	–	–	10000 nM	–
COc1cc2ncnc3c2cc1OCC(=O)NC(C)(C)C(=O)NCc1ccc(Cl)cc1N3 [Compound 132, 4,6-ethanediylidenepyrimido[4,5-b][6,1,9,12]benzoxatriazacyclopentadecine-9,12(8H,13H)-dione, 17-chloro-10,11,14,19-tetrahydro-20-methoxy-11,11-dimethyl-]	–	–	10000 nM	–
COc1cc2ncnc3c2cc1OCC(=O)NCC(=O)NCc1ccccc1N3 [Compound 156, 4,6-ethanediylidenepyrimido[4,5-b][6,1,9,12]benzoxatriazacyclopentadecine-9,12(8H,13H)-dione, 10,11,14,19-tetrahydro-20-methoxy-]	–	–	10000 nM	–
COc1cc2ncnc3c2cc1OCC(=O)NCCC(=O)NCc1ccccc1N3 [Compound 157, 4,6-ethanediylidene-8H-pyrimido[4,5-b][6,1,9,13]benzoxatriazacyclohexadecine-9,13(10H,14H)-dione, 11,12,15,20-tetrahydro-21-methoxy-]	–	–	10000 nM	–
